Structures can show the parent of a compound that is named as a salt. Where two headings read alike, the source gives them in different places.
Experiments:
Type in all cases: biochemical
[1] = target: T1, recombinant human DAO (diamine oxidase) (Homo sapiens, UniProt P19801); assay: Activity evaluation on recombinant human DAO (Amplex Red/HRP-coupled assay, 1 mM putrescine substrate); conditions: read-out: Inhibitory Activity (IC50, nM) DAO
T1 construct: purchased R&D systems
T1 sequence (P19801 20-751): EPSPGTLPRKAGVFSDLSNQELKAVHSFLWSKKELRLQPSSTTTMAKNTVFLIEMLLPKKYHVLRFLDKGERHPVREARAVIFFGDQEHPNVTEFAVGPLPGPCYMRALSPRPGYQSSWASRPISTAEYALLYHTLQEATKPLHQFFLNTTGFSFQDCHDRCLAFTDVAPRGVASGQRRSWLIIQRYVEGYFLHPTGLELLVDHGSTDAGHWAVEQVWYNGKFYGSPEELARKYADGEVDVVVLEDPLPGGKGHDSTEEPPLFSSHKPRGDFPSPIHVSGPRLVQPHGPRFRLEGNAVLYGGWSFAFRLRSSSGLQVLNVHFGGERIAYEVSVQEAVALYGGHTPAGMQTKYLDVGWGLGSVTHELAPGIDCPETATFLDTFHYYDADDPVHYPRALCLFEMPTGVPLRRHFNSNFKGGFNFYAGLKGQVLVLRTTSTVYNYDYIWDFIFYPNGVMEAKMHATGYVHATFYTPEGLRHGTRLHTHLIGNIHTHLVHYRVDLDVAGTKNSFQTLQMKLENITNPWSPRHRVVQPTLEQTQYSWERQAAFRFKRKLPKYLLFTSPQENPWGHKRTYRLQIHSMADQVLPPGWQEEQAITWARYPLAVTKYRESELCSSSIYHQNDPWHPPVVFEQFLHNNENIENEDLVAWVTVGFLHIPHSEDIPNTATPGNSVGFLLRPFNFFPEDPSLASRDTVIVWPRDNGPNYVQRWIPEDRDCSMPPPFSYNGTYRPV
Method in brief: (§1)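 Using an HRP-coupled Amplex Red readout (544/590 nm, kinetic over 1–2 h), IC50 values were fitted by 4-parameter logistic model to percent decrease in signal rate against DMSO control. Compounds (1:3 dilutions, 8 points, <1% DMSO) sat 30 min at 37 °C with enzyme in pH 7.4 phosphate buffer before substrate, 200 uM Amplex Red and HRP were added.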

[2] = target: T2, recombinant human MAO-B (monoamine oxidase-B) (Homo sapiens, UniProt P27338); assay: Activity evaluation on recombinant human MAO-B (Amplex Red/HRP-coupled assay, 1 mM benzylamine substrate); conditions: read-out: Inhibitory Activity (IC50, nM) MAO-B
T2 construct: purchased Sigma-Aldrich
T2 sequence (P27338 1-520): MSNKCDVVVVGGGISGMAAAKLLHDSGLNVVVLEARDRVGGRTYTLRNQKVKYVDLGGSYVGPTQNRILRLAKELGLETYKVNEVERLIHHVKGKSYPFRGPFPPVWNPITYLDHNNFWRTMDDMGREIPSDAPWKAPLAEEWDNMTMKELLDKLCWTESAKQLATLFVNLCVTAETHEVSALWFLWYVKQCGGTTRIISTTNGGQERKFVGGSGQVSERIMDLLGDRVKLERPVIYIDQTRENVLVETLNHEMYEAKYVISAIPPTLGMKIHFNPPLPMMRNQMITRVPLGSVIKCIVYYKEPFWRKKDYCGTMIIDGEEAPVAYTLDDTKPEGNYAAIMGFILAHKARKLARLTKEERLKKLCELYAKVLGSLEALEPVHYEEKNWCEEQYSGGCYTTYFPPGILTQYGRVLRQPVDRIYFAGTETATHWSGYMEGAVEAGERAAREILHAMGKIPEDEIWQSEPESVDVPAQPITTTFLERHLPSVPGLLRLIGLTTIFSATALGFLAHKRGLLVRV
Method in brief: as §1

[3] = target: T3, recombinant human VAP-1 (Homo sapiens, UniProt Q16853); assay: Activity evaluation on recombinant human VAP-1 (Amplex Red/HRP-coupled hydrogen peroxide assay, benzylamine substrate); conditions: read-out: Inhibitory Activity (IC50, nM) human VAP-1
T3 construct: purchased R&D systems
T3 sequence (Q16853 1-763): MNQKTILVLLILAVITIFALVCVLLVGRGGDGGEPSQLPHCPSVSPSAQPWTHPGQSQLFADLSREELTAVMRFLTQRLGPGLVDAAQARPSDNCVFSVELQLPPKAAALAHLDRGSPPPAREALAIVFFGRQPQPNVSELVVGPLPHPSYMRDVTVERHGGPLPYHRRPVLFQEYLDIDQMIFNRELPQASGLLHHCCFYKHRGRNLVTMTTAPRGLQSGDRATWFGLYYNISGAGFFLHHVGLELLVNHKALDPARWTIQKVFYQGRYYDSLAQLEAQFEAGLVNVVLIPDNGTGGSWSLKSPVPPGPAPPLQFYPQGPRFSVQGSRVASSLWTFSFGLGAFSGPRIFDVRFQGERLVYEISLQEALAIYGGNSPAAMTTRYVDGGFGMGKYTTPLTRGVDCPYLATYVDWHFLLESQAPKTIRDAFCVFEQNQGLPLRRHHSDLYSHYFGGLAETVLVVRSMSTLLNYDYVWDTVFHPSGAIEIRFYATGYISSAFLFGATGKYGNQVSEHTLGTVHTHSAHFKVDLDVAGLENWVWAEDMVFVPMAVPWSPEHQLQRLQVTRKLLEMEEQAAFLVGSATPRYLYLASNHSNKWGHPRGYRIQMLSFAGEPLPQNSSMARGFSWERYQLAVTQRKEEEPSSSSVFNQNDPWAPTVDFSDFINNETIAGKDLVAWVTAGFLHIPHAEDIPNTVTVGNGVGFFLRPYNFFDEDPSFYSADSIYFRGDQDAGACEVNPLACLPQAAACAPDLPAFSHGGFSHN
Method in brief: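 Hydrogen peroxide from benzylamine (1 mM) oxidation by human recombinant VAP-1 detected via HRP-coupled Amplex Red (200 uM) fluorescence, kinetic over 1–2 h. Enzyme and compound preincubated 30 min at 37 °C, pH 7.4 phosphate; 8-point dose response, signal-rate decrease versus DMSO control fitted to four-parameter logistic for IC50.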

[4] = target: T4, recombinant human MAO-A (monoamine oxidase-A) (Homo sapiens, UniProt P21397); assay: Activity evaluation on recombinant human MAO-A (Amplex Red/HRP-coupled assay, 0.5 mM tyramine substrate); conditions: read-out: Inhibitory Activity (IC50, nM) MAO-A
T4 construct: purchased Sigma-Aldrich
T4 sequence (P21397 1-527): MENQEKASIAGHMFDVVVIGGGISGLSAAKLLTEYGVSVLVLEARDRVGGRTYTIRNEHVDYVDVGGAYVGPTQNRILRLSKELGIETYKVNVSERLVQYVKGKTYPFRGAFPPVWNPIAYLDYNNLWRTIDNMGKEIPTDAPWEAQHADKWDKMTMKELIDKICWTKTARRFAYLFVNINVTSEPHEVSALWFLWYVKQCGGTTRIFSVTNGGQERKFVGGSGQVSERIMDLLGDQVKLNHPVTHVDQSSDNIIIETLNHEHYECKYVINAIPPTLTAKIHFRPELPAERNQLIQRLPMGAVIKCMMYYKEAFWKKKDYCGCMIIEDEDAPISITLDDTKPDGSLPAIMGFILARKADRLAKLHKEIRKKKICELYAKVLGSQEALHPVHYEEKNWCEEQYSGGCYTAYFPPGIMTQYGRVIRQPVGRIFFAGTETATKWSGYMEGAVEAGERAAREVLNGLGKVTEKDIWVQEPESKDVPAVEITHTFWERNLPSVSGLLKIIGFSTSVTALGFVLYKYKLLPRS
Method in brief: as §1

[5] = recombinant human VAP-1, 30 min preincubation at 37° C., 1 mM benzylamine
[6] = recombinant human VAP-1, benzylamine substrate

Row | Structure (SMILES) | IC50 ([1]; 1 mM putrescine) [nM] | IC50 ([2]; 1 mM benzylamine) [nM] | IC50 [3, 5] [nM] | IC50 ([4]; 0.5 mM tyramine) [nM] | IC50 ([1]; 1 mM putrescine substrate) [nM] | IC50 ([2]; 1 mM benzylamine substrate) [nM] | IC50 [3, 6] [nM] | IC50 ([4]; 0.5 mM tyramine substrate) [nM]
1 | NCC(Cn1ncn(Cc2ccc(-c3ccc4nonc4c3)s2)c1=O)=C(F)F [Example 129, 2-[2-(aminomethyl)-3,3-difluoro-allyl]-4-[[5-(2,1,3-benzoxadiazol-5-yl)-2-thienyl]methyl]-1,2,4-triazol-3-one Trifluoroacetate] | 21000 | 311 | 0.7 | > 100000 |  |  |  | 
2 | CS(=O)(=O)c1ccc(-c2ccnc(-n3cnn(CC(CN)=C(F)F)c3=O)c2)cc1 [Example 54, 2-[2-(aminomethyl)-3,3-difluoro-allyl]-4-[4-(4-methylsulfonylphenyl)-2-pyridyl]-1,2,4-triazol-3-one Trifluoroacetate] | 480 | > 100000 | 4.9 | > 100000 |  |  |  | 
3 | Cc1cc(-c2ccc(N(C)C)nc2)sc1Cn1cnn(CC(CN)=C(F)F)c1=O [Example 157, 2-[2-(aminomethyl)-3,3-difluoro-allyl]-4-[[5-[6-(dimethylamino)-3-pyridyl]-3-methyl-2-thienyl]methyl]-1,2,4-triazol-3-one Trifluoroacetate] | > 100000 | > 100000 | 2.3 | > 100000 |  |  |  | 
4 | CS(=O)(=O)c1ccc(-c2ccc(-n3cnn(CC(CN)=C(F)F)c3=O)cc2F)cc1 [Example 24, 2-[2-(aminomethyl)-3,3-difluoro-allyl]-4-[3-fluoro-4-(4-methylsulfonylphenyl)phenyl]-1,2,4-triazol-3-one Trifluoroacetate] | 600 | 3300 | 2.7 | > 100000 |  |  |  | 
5 | Cc1c(-c2cnn(C(F)F)c2)cccc1-n1cnn(CC(CN)=C(F)F)c1=O [Example 261, 2-[2-(aminomethyl)-3,3-difluoro-allyl]-4-[3-[1-(difluoromethyl)pyrazol-4-yl]-2-methyl-phenyl]-1,2,4-triazol-3-one Trifluoroacetate] |  |  |  |  | > 100000 | > 100000 | 6.5 | > 100000
6 | CS(=O)(=O)c1ccc(-c2cnc(-n3cnn(CC(CN)=C(F)F)c3=O)c(F)c2)cc1 [Example 82, 2-[2-(aminomethyl)-3,3-difluoro-allyl]-4-[3-fluoro-5-(4-methylsulfonylphenyl)-2-pyridyl]-1,2,4-triazol-3-one Trifluoroacetate] | 13 | 3700 | 0.1 | > 100000 |  |  |  | 
7 | NCC(Cn1ncn(Cc2ccc(-c3cnn(Cc4ccccc4)c3)s2)c1=O)=C(F)F [Example 297, 2-[2-(aminomethyl)-3,3-difluoro-allyl]-4-[[5-(1-benzylpyrazol-4-yl)-2-thienyl]methyl]-1,2,4-triazol-3-one Trifluoroacetate] |  |  |  |  | 14800 | > 100000 | 1.9 | > 100000
8 | Cc1cc(-n2cnn(CC(CN)=C(F)F)c2=O)cnc1Br [Example 13, 2-[2-(aminomethyl)-3,3-difluoro-allyl]-4-(6-bromo-5-methyl-3-pyridyl)-1,2,4-triazol-3-one Trifluoroacetate] | 910 | 3600 | 3.6 | > 100000 |  |  |  | 
9 | Cc1cc(-c2cc(F)c(Cn3cnn(CC(CN)=C(F)F)c3=O)s2)cc2c1NC(=O)CC2 [Example 304, 6-(5-((1-(2-(aminomethyl)-3,3-difluoroallyl)-5-oxo-1,5-dihydro-4H-1,2,4-triazol-4-yl)methyl)-4-fluorothiophen-2-yl)-8-methyl-3,4-dihydroquinolin-2(1H)-one Trifluoroacetate] |  |  |  |  | 12600 | > 100000 | 0.7 | > 100000
10 | NCC(Cn1ncn(-c2cc(-c3ccc(N4CCNCC4)cc3)ccn2)c1=O)=C(F)F [Example 55, 2-[2-(aminomethyl)-3,3-difluoro-allyl]-4-[4-(4-piperazin-1-ylphenyl)-2-pyridyl]-1,2,4-triazol-3-one Ditrifluoroacetate] | 620 | > 100000 | 6.6 | > 100000 |  |  |  | 
11 | Cc1cc(-c2ccc3c(c2)OCO3)cnc1-n1cnn(CC(CN)=C(F)F)c1=O [Example 72, 2-[2-(aminomethyl)-3,3-difluoro-allyl]-4-[5-(1,3-benzodioxol-5-yl)-3-methyl-2-pyridyl]-1,2,4-triazol-3-one Trifluoroacetate] | 57000 | 1500 | 0.5 | > 100000 |  |  |  | 
12 | Cn1cc(-c2ccc(Cn3cnn(CC(CN)=C(F)F)c3=O)s2)ccc1=O [Example 121, 5-[5-[[1-[2-(aminomethyl)-3,3-difluoro-allyl]-5-oxo-1,2,4-triazol-4-yl]methyl]-2-thienyl]-1-methyl-pyridin-2-one Trifluoroacetate] | > 10000 | 40000 | 0.9 | > 100000 |  |  |  | 
13 | Cc1cc(-c2ccc(N3CCNCC3)cc2)cnc1-n1cnn(CC(CN)=C(F)F)c1=O [Example 69, 2-[2-(aminomethyl)-3,3-difluoro-allyl]-4-[3-methyl-5-(4-piperazin-1-ylphenyl)-2-pyridyl]-1,2,4-triazol-3-one Ditrifluoroacetate] | > 100000 | > 100000 | 1.2 | > 100000 |  |  |  | 

From US11168073B2, “3,3-difluoroallylamines or salts thereof and pharmaceutical compositions comprising the same” (YUHAN CORPORATION, priority 2018, dated 2021)
